Results: patent US20110201562A1, “FORMULATIONS AND METHOD FOR TREATING BALDNESS” (SEDERMA, priority 2005, published 2011)

What was measured:
[1] = test system: blood vessels in the dermis; assay: Vasodilation on the scalp (statement, no method)
hair follicles = assay: Cultured hair follicles: growth monitored over 14 days; type: cell-based; details: 2 ppm in medium
Experimental: Excess hair follicles prepared in the context of a micrograft transplantation session were collected for culturing in a medium similar to that reported in, and herein encorporated by reference, Philpott et al., Whole Hair Follicule Culture, Dermatologic Clinics 595 (Oct. 14, 1996). Said hair follicles were then individually incubated at 37° C. under an air plus CO2 (at 5%) atmosphere for 14 days. The explants were then divided into four groups: 1) a control group for the culture medium alone, 2) a positive control group which was exposed to a medium of 2 ppm Minoxidil®, 3) a test group exposed to the peptide biotinyl-GHK in a medium of 2 ppm biotinyl-GHK, and 4) a test group exposed to the peptide biotinyl-GHK in a medium of 5 ppm biotinyl-GHK. The culture medium was changed every 2 days. General morphology was observed on Day 1 and Day 14. Concomitantly, a fraction of the follicles were frozen for the purposes of conducting more advanced immunohistochemical studies. Growth in the follicles was monitored using a digital camera with images being taken on Day 0, Day 3, Day 5, Day 7, Day 11, and Day 14.

5α-reductase = assay: Inhibition of 5α-reductase (statement, no method); type: biochemical

O=c1cc(-c2ccc(O)cc2)oc2cc(O)cc(O)c12 [Apigenin]
effect of use on the scalp on blood vessels [1]: dilates the blood vessels in the dermis

Nc1cc(N2CCCCC2)nc(N)[n+]1[O-] [Minoxidil®, Minoxidil, reference compound]
more growth than observed from the control group (hair follicles): 58%

CC1(C)CC[C@]2(C(=O)O)CC[C@]3(C)C(=CC[C@@H]4[C@@]5(C)CC[C@H](O)C(C)(C)[C@@H]5CC[C@]43C)[C@@H]2C1 [oleanolic acid]
inhibitory action on the enzyme 5α-reductase (5α-reductase): strong inhibitory action
